In patent US10238618B2, “Compositions and methods for diagnosis and treatment of anemia” (The United States of America as represented by the …, priority 2016, dated 2019):

Assay: Serum fatty acid form concentrations (complex lipidomics) in dolphins fed modified diet
Format: in vivo, bottlenose dolphin (Tursiops truncatus)
Conditions: case dolphins fed modified diet (n = 20), Month 0 (baseline)
Experimental: Determination of serum fatty acid concentrations, including a variety of fatty acid classes, were performed by Metabolon, Inc. (Durham, N.C.) using complex lipidomics. Lipids were extracted from samples using dichloromethane and methanol in a modified Bligh-Dyer extraction in the presence of internal standards with the lower, organic, phase being used for analysis. The extracts were concentrated under nitrogen and reconstituted in 0.25 mL of dichloromethane:methanol (50:50) containing 10 mM ammonium acetate. The extracts were placed in vials for infusion-MS analyses, performed on a SelexION equipped Sciex 5500 QTRAP using both positive and negative mode electrospray. Each sample was subjected to 2 analyses, with IMS-MS conditions optimized for lipid classes monitored in each analysis. The 5500 QTRAP was operated in MRM mode to monitor the transitions for over 1,100 lipids from up to 14 lipid classes. Individual lipid species were quantified based on the ratio of signal intensity for target compounds to the signal intensity for an assigned internal standard of known concentration. Lipid class concentrations were calculated from the sum of all molecular species within a class, and fatty acid compositions were determined by calculating the proportion of individual fatty acids within each class. […]

Row | Compound | Serum concentrations of fatty acid forms
1 | CCCCCCCCCCCCCCCCCCCC(=O)O [C20:0 FFA] | 6.6 ± 2.5 µM
2 | CCCCCCCCCCCCCCC(=O)O [C15:0 FFA] | 3.8 ± 1.3 µM
3 | CCCCCCCCCCCCCCCCC(=O)O[C@H]1CC[C@@]2(C)C(=CC[C@H]3[C@@H]4CC[C@H]([C@H](C)CCCC(C)C)[C@@]4(C)CC[C@@H]32)C1 [C17:0 CE] | 14 ± 4 µM
4 | CCCCCCCCCCCCC/C=C/[C@@H](O)[C@H](CO)NC(=O)CCCCCCCCCCCCCCCCCCC [C20:0 CER] | 0.50 ± 0.10 µM
5 | CCCCCCCCCCCCCCCCCCCCCCCC(=O)N[C@@H](CO)[C@H](O)CCCCCCCCCCCCCCC [C24:0 DCER] | 0.07 ± 0.02 µM
6 | CCCCCCCCCCCCC/C=C/[C@@H](O)[C@H](CO)NC(=O)CCCCCCCCCCCCCCCCCCCCC [C22:0 CER] | 0.19 ± 0.04 µM
7 | CCCCCCCCCCCCCC(=O)O[C@H]1CC[C@@]2(C)C(=CC[C@H]3[C@@H]4CC[C@H]([C@H](C)CCCC(C)C)[C@@]4(C)CC[C@@H]32)C1 [C14:0 CE] | 126 ± 32 µM
8 | CCCCCCCCCCCCCCCC(=O)O[C@H]1CC[C@@]2(C)C(=CC[C@H]3[C@@H]4CC[C@H]([C@H](C)CCCC(C)C)[C@@]4(C)CC[C@@H]32)C1 [C16:0 CE] | 273 ± 50 µM
9 | CCCCCCCCCCCCCCCCCCCCCC(=O)O[C@H]1CC[C@@]2(C)C(=CC[C@H]3[C@@H]4CC[C@H]([C@H](C)CCCC(C)C)[C@@]4(C)CC[C@@H]32)C1 [C22:0 CE] | 8.5 ± 2.4 µM

Same assay, conditions: case dolphins fed modified diet (n = 20), Month 1

Row | Compound | Serum concentrations of fatty acid forms
10 | CCCCCCCCCCCCCCCCCCCC(=O)O [C20:0 FFA] | 4.4 ± 1.4 µM
11 | CCCCCCCCCCCCCCC(=O)O [C15:0 FFA] | 4.2 ± 1.5 µM
12 | CCCCCCCCCCCCCCCCC(=O)O[C@H]1CC[C@@]2(C)C(=CC[C@H]3[C@@H]4CC[C@H]([C@H](C)CCCC(C)C)[C@@]4(C)CC[C@@H]32)C1 [C17:0 CE] | 18 ± 7 µM
13 | CCCCCCCCCCCCC/C=C/[C@@H](O)[C@H](CO)NC(=O)CCCCCCCCCCCCCCCCCCC [C20:0 CER] | 0.39 ± 0.08 µM
14 | CCCCCCCCCCCCCCCCCCCCCCCC(=O)N[C@@H](CO)[C@H](O)CCCCCCCCCCCCCCC [C24:0 DCER] | 0.11 ± 0.03 µM
15 | CCCCCCCCCCCCC/C=C/[C@@H](O)[C@H](CO)NC(=O)CCCCCCCCCCCCCCCCCCCCC [C22:0 CER] | 0.23 ± 0.05 µM
16 | CCCCCCCCCCCCCC(=O)O[C@H]1CC[C@@]2(C)C(=CC[C@H]3[C@@H]4CC[C@H]([C@H](C)CCCC(C)C)[C@@]4(C)CC[C@@H]32)C1 [C14:0 CE] | 86 ± 21 µM
17 | CCCCCCCCCCCCCCCC(=O)O[C@H]1CC[C@@]2(C)C(=CC[C@H]3[C@@H]4CC[C@H]([C@H](C)CCCC(C)C)[C@@]4(C)CC[C@@H]32)C1 [C16:0 CE] | 226 ± 41 µM
18 | CCCCCCCCCCCCCCCCCCCCCC(=O)O[C@H]1CC[C@@]2(C)C(=CC[C@H]3[C@@H]4CC[C@H]([C@H](C)CCCC(C)C)[C@@]4(C)CC[C@@H]32)C1 [C22:0 CE] | 5.7 ± 1.5 µM

Same assay, conditions: case dolphins fed modified diet (n = 20), Month 3

Row | Compound | Serum concentrations of fatty acid forms
19 | CCCCCCCCCCCCCCCCCCCC(=O)O [C20:0 FFA] | 5.0 ± 2.3 µM
20 | CCCCCCCCCCCCCCC(=O)O [C15:0 FFA] | 3.6 ± 0.8 µM
21 | CCCCCCCCCCCCCCCCC(=O)O[C@H]1CC[C@@]2(C)C(=CC[C@H]3[C@@H]4CC[C@H]([C@H](C)CCCC(C)C)[C@@]4(C)CC[C@@H]32)C1 [C17:0 CE] | 20 ± 8 µM
22 | CCCCCCCCCCCCC/C=C/[C@@H](O)[C@H](CO)NC(=O)CCCCCCCCCCCCCCCCCCC [C20:0 CER] | 0.42 ± 0.08 µM
23 | CCCCCCCCCCCCCCCCCCCCCCCC(=O)N[C@@H](CO)[C@H](O)CCCCCCCCCCCCCCC [C24:0 DCER] | 0.13 ± 0.05 µM
24 | CCCCCCCCCCCCC/C=C/[C@@H](O)[C@H](CO)NC(=O)CCCCCCCCCCCCCCCCCCCCC [C22:0 CER] | 0.26 ± 0.07 µM
25 | CCCCCCCCCCCCCC(=O)O[C@H]1CC[C@@]2(C)C(=CC[C@H]3[C@@H]4CC[C@H]([C@H](C)CCCC(C)C)[C@@]4(C)CC[C@@H]32)C1 [C14:0 CE] | 93 ± 20 µM
26 | CCCCCCCCCCCCCCCC(=O)O[C@H]1CC[C@@]2(C)C(=CC[C@H]3[C@@H]4CC[C@H]([C@H](C)CCCC(C)C)[C@@]4(C)CC[C@@H]32)C1 [C16:0 CE] | 244 ± 33 µM
27 | CCCCCCCCCCCCCCCCCCCCCC(=O)O[C@H]1CC[C@@]2(C)C(=CC[C@H]3[C@@H]4CC[C@H]([C@H](C)CCCC(C)C)[C@@]4(C)CC[C@@H]32)C1 [C22:0 CE] | 5.9 ± 1.5 µM

Same assay, conditions: case dolphins fed modified diet (n = 20), Month 6

Row | Compound | Serum concentrations of fatty acid forms
28 | CCCCCCCCCCCCCCCCCCCC(=O)O [C20:0 FFA] | 17 ± 10 µM
29 | CCCCCCCCCCCCCCC(=O)O [C15:0 FFA] | 3.8 ± 1.3 µM
30 | CCCCCCCCCCCCCCCCC(=O)O[C@H]1CC[C@@]2(C)C(=CC[C@H]3[C@@H]4CC[C@H]([C@H](C)CCCC(C)C)[C@@]4(C)CC[C@@H]32)C1 [C17:0 CE] | 21 ± 9 µM
31 | CCCCCCCCCCCCC/C=C/[C@@H](O)[C@H](CO)NC(=O)CCCCCCCCCCCCCCCCCCC [C20:0 CER] | 0.41 ± 0.07 µM
32 | CCCCCCCCCCCCCCCCCCCCCCCC(=O)N[C@@H](CO)[C@H](O)CCCCCCCCCCCCCCC [C24:0 DCER] | 0.12 ± 0.03 µM
33 | CCCCCCCCCCCCC/C=C/[C@@H](O)[C@H](CO)NC(=O)CCCCCCCCCCCCCCCCCCCCC [C22:0 CER] | 0.25 ± 0.06 µM
34 | CCCCCCCCCCCCCC(=O)O[C@H]1CC[C@@]2(C)C(=CC[C@H]3[C@@H]4CC[C@H]([C@H](C)CCCC(C)C)[C@@]4(C)CC[C@@H]32)C1 [C14:0 CE] | 92 ± 25 µM
35 | CCCCCCCCCCCCCCCC(=O)O[C@H]1CC[C@@]2(C)C(=CC[C@H]3[C@@H]4CC[C@H]([C@H](C)CCCC(C)C)[C@@]4(C)CC[C@@H]32)C1 [C16:0 CE] | 245 ± 48 µM
36 | CCCCCCCCCCCCCCCCCCCCCC(=O)O[C@H]1CC[C@@]2(C)C(=CC[C@H]3[C@@H]4CC[C@H]([C@H](C)CCCC(C)C)[C@@]4(C)CC[C@@H]32)C1 [C22:0 CE] | 6.3 ± 2.1 µM
